# From patent US9598441B2, “Therapeutic compounds and methods” (Wayne State University, priority 2011, dated 2017)
# Residues, ends and D or L forms follow the SMILES beside them. *: point of attachment. Cbz = O=C(OCc1ccccc1)*; CH2F = FC*
# Legend:
# [1] = tested on: CARP-1, cyclin B1, Cdc20, Cdh1, APC-2, CDKIs, caspases, p38, Bcl2 family proteins; assay: Western blot of protein levels in treated cells; assay type: cell-based; settings: for effect of pre-treatment on CFM-4-dependent loss of cyclin B1 and Cdc20 proteins (WB): pre-treatment before CFM-4
# Protocol: (§1) Logarithmically growing cells were either untreated or treated with different agents for various time periods. The cells were lysed to prepare protein extracts. IP was carried out by incubating approximately 1 mg of the protein lysate with appropriate antibodies, and the immunoprecipitates or cell lysates were then electrophoresed on 9-12% SDS-polyacrylamide gels, and transferred to nitrocellulose membranes. The membranes were subsequently probed with various antibodies to determine expression/presence of the corresponding proteins. The cell growth inhibition was assessed by using MTT assay. Briefly, MTT (3-[4,5-Dimethylthiazol-2-yl]-2,5diphenyltetrazolium bromide) was dissolved in sterile 1×PBS to prepare a stock solution of 5 mg/ml. The solution was subsequently filtered through 0.2 μm filter and stored at 2-8° C. 4−5×10^2 cells were seeded in 96-well plates. After 72 h incubation with or without different agents, MTT stock solution was added to each culture being assayed to equal one tenth the original culture volume, followed by incubation of cells at 37° C. for another 2 h. At the end of the incubation, the media was removed and cells were treated with 100-200 μl of DMSO to solubilize the dye. The assessment of the live cells was derived by measuring the absorbance of the converted dye at wavelength of 570 nm.
# [2] = biological target: T1, CARP-1 binding with APC-2 (Homo sapiens, UniProt Q8IX12); assay: Fluorescence polarization assay (FPA) for inhibitors of CARP-1-APC-2 binding; settings: fluorescein-tagged A-epitope peptide and Gst-APC-2 (685-754)
# T1 construct: made in house; host or cells: E. coli BL-21 (DE3)
# T1 sequence (Q8IX12 951-980 limits assumed): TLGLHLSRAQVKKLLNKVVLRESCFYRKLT
# Protocol: Although, several formats for FP are indicated in the published literature (Inglese, J., Johnson, R. L., Simeonov, A., Xia, M., Zheng, W., Austin, C. P., Auld, D. S. (2007) Nat. Chem. Biol. 3(8), 466-79), the assays using 96-well or higher density plates are often and routinely employed. Optimization of FP for HTS involves several steps including the determination of Kd values, optimization of the buffer conditions, incubation and measurement times, and determination of the DMSO tolerance of the assay. Our goal was to minimize variation and to aim for adequate signal:background without adversely effecting the sensitivity of the assay. The FP polarization values in milli-polarization (mp) were measured to determine changes in the mp (Amp=mp of bound peptide mp of free peptide), the Kd and Ki constants of the binding. A 30-mer CARP-1 peptide that contained APC-2-binding epitope (A-epitope peptide) was commercially synthesized (US Biologicals, MA), labeled with fluorescein at the N-terminus, and purified to >98% purity. Increasing concentrations of A-epitope peptide were incubated with the indicated quantities of the affinity-purified Gst-APC-2 (685-754) protein in assay buffer containing 0.01% triton-X100. Affinity-purified Gst-NEMO (221-317) was included as a negative control. The Δmp was measured by excitation at 485 nm and emission at 538 nm.
# The kinetics of CARP-1 binding with APC-2 was determined, and whether this binding could be exploited to identify SMIs of CARP-1-APC-2 interaction was investigated. For this purpose, a FPA utilizing the affinity-purified Gst-APC-2 (685-754) protein and the fluorescein-tagged A-epitope peptide was developed as detailed in methods. […] The signal to background ratio of 6 underscored robustness of this assay. Since, the quality (precision) and suitability of the FPA for HTS is usually defined by the Z′ factor (25, 40), we utilized the positive and negative control mean signals (μc+ and μc−, respectively) and their standard deviations (σc+ and σc−) to calculate the Z′ factor using the equation Z′=1−[3(σc++σc−)/(μc+−μc−)]. […]
# [3] = biological target: T2, His-TAT-HA-tagged A-epitope peptide [CARP-1 (951-980)] (Homo sapiens, UniProt Q8IX12); assay: In vitro binding of SMIs, immobilized A-epitope peptide pre-incubated with CFM; settings: 100 μM, 30 min at RT; WB with anti-Gst
# T2 construct: wild-type or scrambled His-TAT-HA-CARP-1 (951-980) peptides; made in house; host or cells: E. coli BL-21 (DE3)
# T2 sequence (Q8IX12 951-980 limits assumed): T1 sequence (Q8IX12 951-980 limits assumed)
# Protocol: (§2) The CFM-4 and 5 were separately dissolved in DMSO to obtain a stock of 20-50 mM. For in vitro binding experiments we utilized affinity-purified Gst-APC-2 (685-754) and His-TAT-HA-tagged A-epitope (WT) peptide. Ten nanogram of the His-TAT-HA-tagged A-epitope (WT) peptide was first allowed to bind with Ni-NTA beads (ProBond, InVitrogen), and then the reaction was incubated with DMSO (control), 100 μM CFM-4, or 100 μM CFM-5 for 30 min at RT. The reactions were then subjected to three washes with the binding buffer, followed by incubation with 10 ng of affinity-purified Gst-APC-2 (685-754) peptide for 30 min at RT. The reactions were washed again for three times with PBS, eluted and analyzed on a SDS-PAGE followed by western blotting (WB) with anti-Gst antibodies. A similar strategy was performed by immobilizing the Gst-APC-2 (685-754) peptide with Gst-beads. The beads were washed, incubated with DMSO or the CFMs, and the reactions washed again. The reactions were then allowed to incubate with affinity purified A-epitope peptide, and the complexes analyzed by SDS-PAGE followed by WB with anti HA-tag antibodies.
# [4] = biological target: T3, Gst-APC-2 (685-754) (Homo sapiens, UniProt Q9UJX6); assay: In vitro binding of SMIs, immobilized Gst-APC-2 pre-incubated with CFM; settings: WB with anti HA-tag
# T3 construct: immobilizing the Gst-APC-2 (685-754) peptide with Gst-beads; made in house; host or cells: E. coli BL-21 (DE3)
# Protocol: as §2
# [5] = tested on: caspase-3, caspase-8, caspase-9, caspase-2; assay: ApoAlert Caspase profiling plate, fluorescence-based; assay type: cell-based; settings: pre-treatment before CFM-4
# Protocol: For apoptosis ELISA assay, 4−5×10^2 cells were seeded in 96-well plates and treated essentially as indicated in the MTT assay above. Untreated as well as treated cells were lysed, and levels of mono and oligo-nucleosomal DNA fragments in the lysates were determined by measuring optical density of each sample at 405 nm and 495 nm wavelengths. […] For TUNEL labeling, the cells were treated with various agents, fixed, labeled and photographed essentially as detailed in immuno-localization protocols described before (Zhang, L., Levi, E., Majumder, P., Yu, Y., Aboukameel, A., Du, J., Xu, H., Mohammad, R. M., Hatfield, J. S., Wali, A., Adsay, V., Majumdar, A. P. N., and Rishi, A. K. (2007) Mol. Cancer. Ther. 6(5), 1661-1672). […] Cell lysates derived from vehicle DMSO (Control) or CFM-4-treated cells were added to the wells that had immobilized fluorogenic caspase-3, caspase-8, caspase-9, or caspase-2 substrates. The fluorescence released from the activated caspase-dependent cleavage of respective substrate was detected by a plate reader at the excitation and emission wavelengths of 380 nm and 460 nm, respectively.
# [6] = tested on: HBC, colon, prostate, pancreatic cancer, MPM and lymphoma cells; assay: MTT cell viability assay, cancer cells; assay type: cell-based, human; settings: combination with CFM-4
# Protocol: as §1
# To test whether CFMs that interfere with CARP-1 binding with APC-2 modulate cell growth, HBC, colon, prostate, pancreatic cancer, MPM and lymphoma cells, as well as the immortalized, mammary epithelial MCF-10A cells were utilized. The cells were either treated with vehicle (DMSO) or various doses of the respective compound for a period of 72 h, and percent of live/viable cells for each compound was determined relative to the untreated controls as described in Methods.
# T3 sequence (Q9UJX6 685-754): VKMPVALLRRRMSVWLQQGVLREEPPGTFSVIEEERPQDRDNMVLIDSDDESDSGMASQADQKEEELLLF
compound,measurement,setting,value
"CC[C@H](C)[C@H](NC(=O)[C@H](CCC(=O)O)NC(=O)[C@@H](NC(C)=O)C(C)C)C(=O)N[C@H](C=O)CC(=O)O [Ac-VEOD-CHO, reference compound] (Ac-VEID-aldehyde)",effect of pre-treatment on CFM-4-dependent loss of cyclin B1 and Cdc20 proteins (WB),[1],blocked CFM-4-dependent loss
"O=C1N(CCc2ccccc2)c2ccc(Br)cc2C12NN=C(c1ccccc1)S2 (stereo not shown) [CFM-5, 5-bromo-1-phenethyl-5′-phenyl-3′H-spiro[indoline-3,2′-[1,3,4]thiadiazol]-2-one]",IC50,[2],1400 nM
same,binding of immobilized A-epitope peptide with Gst-APC-2 (685-754) after pre-incubation with compound,[3],abrogated its binding
same,binding of immobilized Gst-APC-2 (685-754) with A-epitope peptide after pre-incubation with compound,[4],failed to abolish its binding
"CC(C)C[C@H](NC(=O)[C@H](Cc1ccccc1)NC(=O)c1cnccn1)B(O)O [velcade, Bortezomib, reference compound]",CARP-1 levels (WB),"[1]; 50 nM velcade 6 h or 24 h, 20 μM CFM-4 24 h",modest increase in CARP-1 levels
same,effect on CFM-4-dependent loss of cyclin B1 or Cdc20 proteins (WB),[1]; 50 nM velcade combined with 20 μM CFM-4,failed to interfere
CC[C@H](C)[C@H](NC(=O)OCc1ccccc1)C(=O)N[C@@H](CCC(=O)OC)C(=O)N[C@H](C(=O)N[C@@H](CC(=O)OC)C(=O)CF)[C@@H](C)O [z-IETD-fmk] (Cbz-IE(OMe)TD(OMe)-CH2F),effect of pre-treatment on CFM-4-dependent activation of caspase 8 or caspase 9,[5],abolished activation
COC(=O)CC[C@H](NC(=O)[C@H](CC(C)C)NC(=O)OCc1ccccc1)C(=O)N[C@@H](Cc1cnc[nH]1)C(=O)N[C@@H](CC(=O)OC)C(=O)CF [z-LEHD-fmk] (Cbz-LE(OMe)HD(OMe)-CH2F),effect of pre-treatment on CFM-4-dependent activation of caspase 8 or caspase 9,[5],abolished activation
"COC(=O)C[C@H](NC(=O)[C@H](C)NC(=O)[C@@H](NC(=O)OCc1ccccc1)C(C)C)C(=O)CF [zVAD-fMK, z-VAD-fmk, reference compound] (Cbz-Val-Ala-Asp(OMe)-CH2F)",effect on cell growth suppression by CFM-4 (MTT),[6],blocked the ability of CFM-4 to suppress cell growth
same,effect of pre-treatment on CFM-4-dependent loss of cyclin B1 and Cdc20 proteins (WB),[1],blocked CFM-4-dependent loss
